For four molecules, Activity results are on record in ChEMBL document CHEMBL1250451, “Mechanistic insights into a Ca2+-dependent family of alpha-mannosidases in a human gut symbiont” (Nat Chem Biol, 2010).

Active and inactive are the calls of the source. The rule behind the calls is not given here.

Holding throughout (format): protein assay
For experiment [1], the target named is T1, Alpha-1,2-mannosidase (BT_3784) (Bacteroides thetaiotaomicron) (UniProt Q8A182).
T1 sequence (whole entry): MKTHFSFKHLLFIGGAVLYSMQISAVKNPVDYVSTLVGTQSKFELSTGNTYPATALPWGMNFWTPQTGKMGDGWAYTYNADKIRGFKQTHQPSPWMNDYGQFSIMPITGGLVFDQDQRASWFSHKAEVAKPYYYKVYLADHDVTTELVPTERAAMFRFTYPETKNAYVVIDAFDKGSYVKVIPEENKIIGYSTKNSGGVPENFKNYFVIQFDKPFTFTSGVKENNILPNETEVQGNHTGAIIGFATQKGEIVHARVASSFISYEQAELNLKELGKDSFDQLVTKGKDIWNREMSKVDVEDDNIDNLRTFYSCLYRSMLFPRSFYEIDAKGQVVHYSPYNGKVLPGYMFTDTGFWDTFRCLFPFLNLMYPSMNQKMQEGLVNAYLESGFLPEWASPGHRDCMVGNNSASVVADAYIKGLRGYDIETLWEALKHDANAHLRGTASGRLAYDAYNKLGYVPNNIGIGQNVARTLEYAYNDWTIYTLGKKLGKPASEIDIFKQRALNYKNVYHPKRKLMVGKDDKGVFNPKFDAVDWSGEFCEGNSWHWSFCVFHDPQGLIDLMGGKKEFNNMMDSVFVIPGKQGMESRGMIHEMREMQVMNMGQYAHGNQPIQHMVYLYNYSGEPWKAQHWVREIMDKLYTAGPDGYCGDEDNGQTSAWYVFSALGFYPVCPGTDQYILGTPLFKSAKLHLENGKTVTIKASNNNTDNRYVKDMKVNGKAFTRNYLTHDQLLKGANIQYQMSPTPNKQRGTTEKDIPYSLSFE
In words: Activity of Bacteroides thetaiotaomicron GH92 alpha-mannosidase GH92 alpha-mannosidase 3784 assessed as mannose release at 1 mM after 16 hrs by HPLC relative to untreated control after 16 hrs by HPLC.

Experiment [2] addresses T2, Alpha-1,2-mannosidase (BT_3858) (Bacteroides thetaiotaomicron) (UniProt Q8A113).
T2 sequence (whole entry): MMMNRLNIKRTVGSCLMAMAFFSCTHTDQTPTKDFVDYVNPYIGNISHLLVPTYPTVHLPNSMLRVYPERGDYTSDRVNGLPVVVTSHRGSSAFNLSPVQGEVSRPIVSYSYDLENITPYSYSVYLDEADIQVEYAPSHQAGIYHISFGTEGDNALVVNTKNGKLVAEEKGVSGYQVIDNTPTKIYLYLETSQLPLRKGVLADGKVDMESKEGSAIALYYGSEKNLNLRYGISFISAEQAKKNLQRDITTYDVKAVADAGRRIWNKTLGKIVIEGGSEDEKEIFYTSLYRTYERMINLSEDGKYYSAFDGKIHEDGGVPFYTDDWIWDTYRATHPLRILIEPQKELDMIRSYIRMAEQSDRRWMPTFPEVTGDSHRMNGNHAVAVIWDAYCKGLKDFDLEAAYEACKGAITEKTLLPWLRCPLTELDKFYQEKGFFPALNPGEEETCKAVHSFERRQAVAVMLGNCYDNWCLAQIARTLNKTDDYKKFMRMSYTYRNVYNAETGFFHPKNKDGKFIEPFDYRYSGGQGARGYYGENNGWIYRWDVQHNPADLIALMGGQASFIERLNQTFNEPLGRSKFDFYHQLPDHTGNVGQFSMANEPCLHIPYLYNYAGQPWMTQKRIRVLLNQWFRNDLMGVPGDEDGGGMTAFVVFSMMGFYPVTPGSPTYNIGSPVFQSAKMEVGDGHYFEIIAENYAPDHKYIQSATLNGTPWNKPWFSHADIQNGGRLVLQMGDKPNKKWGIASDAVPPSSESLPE
The experiment in a line: Activity of Bacteroides thetaiotaomicron GH92 alpha-mannosidase GH92 alpha-mannosidase 3858 assessed as mannose release at 1 mM after 16 hrs by HPLC relative to untreated control after 16 hrs by HPLC.

The target of experiment [3] is T3, Alpha-1,2-mannosidase, putative (BT_4073) (Bacteroides thetaiotaomicron) (UniProt Q8A0E8).
T3 sequence (whole entry): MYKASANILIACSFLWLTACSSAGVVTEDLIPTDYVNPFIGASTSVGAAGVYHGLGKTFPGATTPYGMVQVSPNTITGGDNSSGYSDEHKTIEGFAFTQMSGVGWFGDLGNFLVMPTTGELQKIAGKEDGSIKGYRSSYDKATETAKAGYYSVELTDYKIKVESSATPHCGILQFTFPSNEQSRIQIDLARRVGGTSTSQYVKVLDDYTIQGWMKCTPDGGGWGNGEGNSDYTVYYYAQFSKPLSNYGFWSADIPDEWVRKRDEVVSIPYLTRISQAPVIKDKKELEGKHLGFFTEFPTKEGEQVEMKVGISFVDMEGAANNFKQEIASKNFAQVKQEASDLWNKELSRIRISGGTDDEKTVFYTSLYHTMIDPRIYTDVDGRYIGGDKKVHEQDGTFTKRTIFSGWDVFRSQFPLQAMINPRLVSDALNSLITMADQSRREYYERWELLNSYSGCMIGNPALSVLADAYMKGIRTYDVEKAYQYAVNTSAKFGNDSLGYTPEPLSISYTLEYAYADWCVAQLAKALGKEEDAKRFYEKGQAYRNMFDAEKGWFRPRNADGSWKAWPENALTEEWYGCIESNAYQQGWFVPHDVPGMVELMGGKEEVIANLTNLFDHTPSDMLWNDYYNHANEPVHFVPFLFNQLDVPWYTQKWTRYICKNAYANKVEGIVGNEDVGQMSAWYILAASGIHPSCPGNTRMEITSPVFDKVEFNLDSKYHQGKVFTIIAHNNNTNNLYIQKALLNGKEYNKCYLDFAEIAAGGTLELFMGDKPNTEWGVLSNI
The experiment in a line: Activity of Bacteroides thetaiotaomicron GH92 alpha-mannosidase GH92 alpha-mannosidase 4073 assessed as mannose release at 1 mM after 16 hrs by HPLC relative to untreated control after 16 hrs by HPLC.

Turning to `OC[C@H]1O[C@H](O[C@H]2[C@@H](O)[C@H](O)[C@@H](CO)O[C@@H]2O)[C@@H](O)[C@@H](O)[C@@H]1O`, the Activity in experiment [1] amounted to 100%; in experiment [2], 0.045%. In addition, the result in experiment [3] was inactive.
On to `OC[C@H]1O[C@H](O[C@H]2[C@H](O)[C@H](O)[C@@H](O)O[C@@H]2CO)[C@@H](O)[C@@H](O)[C@@H]1O`, for which the values for the Activity in experiment [1], in experiment [2] and in experiment [3] were 7.8%, 0.1% and 100%, respectively.
The matching figures for `OC[C@H]1O[C@H](OC[C@H]2O[C@H](O)[C@@H](O)[C@@H](O)[C@@H]2O)[C@@H](O)[C@@H](O)[C@@H]1O`: “inactive”, 0.0025% and “inactive”.
As to `OC[C@H]1O[C@H](O[C@@H]2[C@H](O)[C@@H](O)O[C@H](CO)[C@H]2O)[C@@H](O)[C@@H](O)[C@@H]1O`, the Activity in experiment [1] is 5.6%. In experiment [3], the result was inactive.
